PMC5312321, “A general strategy to optimize immunogenicity of HLA-B*0702 restricted cryptic peptides from tumor associated antigens: Design of universal neo-antigen like tumor vaccines for HLA-B*0702 positive patients” (Oncotarget, 2016)

Tests used:
HLA-B*0702 = target: T1, HLA-B*0702 (Homo sapiens, UniProt P01889); test: Measurement of peptide relative affinity to HLA-B*0702 (surface expression on T2-B7 cells); type: cell-based
T1 construct: expressed in transfected cells; host or cells: human T2-B7 cells (T2 transfected with HLA-B*0702)
Experimental: The protocol used has been described previously. Briefly, T2-B7 cells were incubated at 37°C for 16 hours with peptides concentrations ranging from 100 μM to 0.1 μM (100 μM, 10 μM, 1 μM and 0.1μM), and then stained with ME-1 monoclonal antibody (mAb) to quantify the surface expression of HLA-B*0702. For each peptide concentration, the HLA-B*0702 specific staining was calculated as the percentage of staining obtained with 100 μM of the reference peptide CMV265–274 (R10V; […], SEQ ID NO: 9). The relative affinity (RA) was determined as: RA = (Concentration of each peptide that induces 20% of HLA-B*0702-expression/Concentration of the reference R10V peptide that induces 20% of HLA-B*0702 expression). In case of non-binders peptide, RA is not evaluable since the 20% of HLA-B*0702 expression is not reach even with the highest concentration of peptide.

[1] = tested on: CD8+ T cells from healthy donors; test: In vitro induction of specific CTLs from PBMC of healthy HLA-B*0702 donors (IFNγ intracellular staining or ELISPOT); type: cell-based, human; conditions: for immunogenicity in vitro in human PBMC (in words): CD8+ T cells from healthy donors, four stimulations with peptide loaded autologous DC; for Immunogenicity against optimized peptide (number of positive culture/number of total cultures): human healthy donor PBMC stimulated with optimized peptide loaded DC, T2-B7 cells loaded with optimized peptide; for Immunogenicity against native peptide (number of positive culture/number of total cultures): human healthy donor PBMC stimulated with optimized peptide, T2-B7 cells loaded with corresponding native peptide
Experimental: CD8+ T cells from healthy donors were in vitro stimulated with autologous dendritic cells loaded with each optimized cryptic peptide. After four stimulations, proliferating cells were tested for the presence of IFNγ producing CTLs upon stimulation with T2-B7 cells loaded with optimized or native peptides either by intracellular IFNγ staining or by IFNγ ELISPOT assay.
PBMC were collected by leukapheresis from healthy HLA-A*B702 volunteers. Dendritic cells (DC) were produced from adherent cells cultured with 500 IU/ml GM-CSF and 500 IU/ml IL-4, in complete synthetic medium (AIMV) for seven days. On day 7, DCs were pulsed with 10 μM of peptide during 2 hours and CD8^+ cells were purified by negative selection with CD8 Dynabeads Untouched Human CD8. CD8^+ cells (2 × 10^5) + CD8^− cells (6 × 10^4) were stimulated with 3 × 10^4 peptide-pulsed DC in AIMV medium supplemented with 1000 IU/ml IL-6 and 5 IU/ml IL-12 in round-bottomed 96-well plates.
From day 7, cultures were stimulated weekly with peptide-loaded DC in the presence of 20 IU/ml IL-2 and 10 ng/ml IL-7, 1 μg/ml anti-CD40 and 500 IU/ml IFNγ.
After the third stimulation, CD8 cells were maintained in AIMV supplemented with 20 IU/ml IL-2 during 7 days. Cultures were starved overnight with AIMV and then were tested in an intracellular IFNγ and an IFNγ ELISpot assay.
Stimulated T cells (10^5) from each pool were incubated with 2 × 10^5 T2 cells loaded with stimulating peptide in the presence of 20 μg/ml Brefeldin-A (Sigma, Oakville, Canada). Six hours later they were washed, stained with r-phycoerythrin-conjugated anti-CD8 antibody (Caltag Laboratories, Burlingame, CA, USA) in PBS for 25 min at 4°C, washed again, and fixed with 4% PFA. The cells were then permeabilized with PBS, 0.5% BSA, 0.2% saponin (Sigma, Oakville, Canada), and labelled with an allophycocyanin-conjugated anti-IFNγ mAb (PharMingen, Mississauga, Canada) for 25 min at 4°C before analysis with a FACSCalibur® flow cytometer.
Stimulated T cells were splited in four pools and IFNγ producing T cells was quantified in each pool by ELISpot using the Diaclone Kit Human IFNγ ELISpot (Besançon, France) according to manufacturer's recommendations. 250 000 cells were distributed per well and tested for the recognition of 10 μM of either the native or optimized peptide. Positive control was Concanavalin A and negative control was medium alone or an irrelevant peptide. All conditions were tested in sixplicates.

[2] = tested on: HLA-B*0702 transgenic mice; test: Vaccination of HLA-B*0702 transgenic mice; specific CTLs detected by cytotoxicity or IFNγ ELISPOT; type: in vivo, mouse; conditions: for cross recognition of the native peptide by CTLs induced by the optimized peptide in mice (in words): HLA-B*0702 transgenic mice, target cells loaded with native peptide; for Immunogenicity against optimized peptide (responding mice/vaccinated mice): cytotoxicity or IFNγ ELISPOT against target cells loaded with the optimized peptide; for immunogenicity in HLA-B*0702 transgenic mice (in words): specific CTL induction after vaccination, cytotoxicity (ratio 30/1) or IFNγ ELISpot
Experimental: The HLA-B7 H-2 class-I knockout mice were previously described.
Mice were injected subcutaneously with 100 μg of peptide emulsified in Incomplete Freund's Adjuvant (IFA) in the presence of 150 μg of the I-A^b restricted HBVcore128 T helper epitope ([…]) twice at two weeks interval.
A particular protocol was applied for MAGE-A 274L9, with two injections of this peptide at two weeks interval and 15 days later one injection with each one of the native peptide.
On day 6 of culture the bulk responder populations were tested for specific cytotoxicity. […] Percentage of specific lysis was determined as: % Lysis = (Experimental Release-Spontaneous Release) / (Maximal Release-Spontaneous Release) × 100. Spontaneous release is obtained using medium only, maximum release with HCl 0.1 M.
Seven days after the last vaccination, spleens were removed and T cells were isolated by Ficoll centrifugation and tested ex vivo for the recognition of 10 μM of either the native or optimized peptide. IFNγ producing T cells were quantified by ELISpot using the Diaclone Kit Murine IFNγ ELISpot (Besançon, France) according to manufacturer's recommendations. 250 000 spleen T cells were distributed per well and tested for the recognition of 10 μM of either the native or optimized peptide. Positive control was Concanavalin A and negative control was medium alone. All conditions were tested in sixplicates.

[3] = mice vaccinated twice with the optimized peptide

Sequence | RA (Relative Affinity) (HLA-B*0702; 37°C 16 hours, peptide 100 μM to 0.1 μM, ME-1 mAb staining, RA = concentration inducing 20% of HLA-B*0702 expression / that of reference R10V, mean ± SD, at least three experiments, ≥ 10 = 10 or not measurable, SD) | binding to / affinity for HLA-B*0702 (in words) (HLA-B*0702; relative to reference peptide R10V) | immunogenicity in vitro in human PBMC (in words) [1] | Immunogenicity against optimized peptide (number of positive culture/number of total cultures) [1] | Immunogenicity against native peptide (number of positive culture/number of total cultures) [1] | cross recognition of native peptide by human CTLs induced by the optimized peptide (in words) ([1]; T2-B7 cells loaded with optimized or native peptides, IFNγ staining or ELISPOT) | Immunogenicity against native peptide MAGE-A1_269 (positive culture/total cultures) ([1]; human PBMC stimulated with optimized peptide, targets loaded with MAGE-A1_269 as printed) | Immunogenicity against native peptide MAGE-A2_274 (positive culture/total cultures) ([1]; human PBMC stimulated with optimized peptide, targets loaded with MAGE-A2_274) | Immunogenicity against native peptide MAGE-A3_274 (positive culture/total cultures) ([1]; human PBMC stimulated with optimized peptide, targets loaded with MAGE-A3_274) | cross recognition of the native peptide by CTLs induced by the optimized peptide in mice (in words) [2] | (Number of spots – background)/10^6 cells ([2]; IFNγ ELISpot, Figure 3, value printed in the picture, mouse vaccinated twice at two weeks interval, statistically significant (*)) | Immunogenicity against optimized peptide (responding mice/vaccinated mice) [2, 3] | Immunogenicity against native peptide MAGE-A1_267 (responding mice/vaccinated mice) ([2]; mice vaccinated with optimized peptide, target cells loaded with MAGE-A1_267) | Immunogenicity against native peptide MAGE-A2_274 (responding mice/vaccinated mice) ([2]; mice vaccinated with optimized peptide, target cells loaded with MAGE-A2_274) | Immunogenicity against native peptide MAGE-A3_274 (responding mice/vaccinated mice) ([2]; mice vaccinated with optimized peptide, target cells loaded with MAGE-A3_274) | immunogenicity in HLA-B*0702 transgenic mice (in words) [2] | Immunogenicity against native peptide (responding mice/vaccinated mice) ([2]; mice vaccinated twice with the optimized peptide, target cells loaded with the corresponding native peptide)
APRRLVQLL [TERT444A1, optimized TERT444, alanine at position 1] | 1.4 ± 0.83 | high HLA-B*0702 affinity | confirmed | 1/2 | 2/2 |  |  |  |  |  |  |  |  |  |  |  | 
GPRALVETL [MAGE-A274 L9, optimized peptide derived from MAGE-A3_274, leucine at position 9] |  |  | confirmed | 2/4 |  | cross recognition of MAGE-A3_274 and MAGE-A2_274 was confirmed but not for MAGE-A1_267 | 0/4 | 2/4 | 2/4 | able to recognize target cells loaded with MAGE-A3_274 but also MAGE-A1_267 and MAGE-A2_274 | 3023 /10^6 cells | 18/18 | 3/8 | 3/5 | 4/5 | immunogenic | 
SPRLQLSNL [CEA188L9, optimized CEA188 modified at last position by a leucine] |  |  | confirmed | 1/3 | 2/3 |  |  |  |  | able to recognize target cells loaded with their corresponding native peptide |  | 6/6 |  |  |  | immunogenic | 6/6
